In patent US10196391B2 (Hoffmann-La Roche Inc., priority 2014, dated 2019):

The compounds below were run on HBsAg (assay: HBsAg assay (CLIA) in HepG2.2.15 cells). Details: Hepatitis B virus, HepG2.2.15, read-out: IC50 (HBsAg assay).
Assay type: cell-based, HBV
Description: HepG2.2.15 cells (Acs et al. Proc Natl Acad Sci USA, 84, (1987), 4641-4), a constitutively HBV-expressing cell line were cultured in DMEM+Glutamax-I medium (Invitrogen, Carlsbad, Calif., USA), supplemented with 10% fetal bovine serum (Invitrogen) and G418 (Invitrogen) at a final concentration of 200 mg/L and maintained in 5% CO2 at 37° C.
HepG2.2.15 cells were seeded in duplicate into white, 96-well plates at 1.5×10^4 cells/well. The cells were treated with a three-fold serial dilution series of the compounds in DMSO. The final DMSO concentration in all wells was 1% and DMSO was used as no drug control.
The HBsAg chemiluminescence immunoassay (CLIA) kit (Autobio Diagnostics Co., Zhengzhou, China, Catalog number: CL0310-2) was used to measure the levels of secreted HBV antigens semi-quantitatively. For the detection 50 μL/well culture supernatant was used and HBsAg was quantified using HBsAg chemiluminescence immunoassay (CLIA) kit (Autobio Diagnostics Co., Zhengzhou, China, Catalog number: CL0310-2), 50 μL of the supernatant was transferred to the CLIA assay plate and 50 μL of enzyme conjugate reagent was added into each well. The plates were sealed and gently agitated for 1 hour at room temperature. The supernatant-enzyme-mixture was discarded and wells were washed 6 times with 300 μL of PBS. The residual liquid was removed by plating the CLIA plate […] on absorbent tissue paper. 25 μL of substrates A and B were added to each well. Luminance was measured using a luminometer (Mithras LB 940 Multimode Microplate Reader) after 10 minutes incubation. Dose-response curves were generated and the IC50 value was extrapolated by using the E-WorkBook Suite (ID Business Solutions Ltd., Guildford, UK). The IC50 was defined as the compound concentration (or conditioned media log dilution) at which HBsAg secretion was reduced by 50% compared to the no drug control.
The compounds according to formula I were tested for their capacity to inhibit HBsAg as described herein.

| Structure (SMILES) | IC50 |
| --- | --- |
| COc1cc(N2CCc3nc(-c4ncccn4)ncc3C2)cc(F)c1C#N [Example 77, 2-fluoro-6-methoxy-4-(2-pyrimidin-2-yl-7,8-dihydro-5H-pyrido[4,3-d]pyrimidin-6-yl)benzonitrile] | 265 nM |
| COc1cc(N2CCc3nc(-c4ncccn4)ncc3C2)cc(F)c1Cl [Example 78, 6-(4-chloro-3-fluoro-5-methoxy-phenyl)-2-pyrimidin-2-yl-7,8-dihydro-5H-pyrido[4,3-d]pyrimidine] | 19000 nM |
| COc1cc(N2CCc3nc(-c4ncccn4)ncc3C2)cc(Cl)c1F [Example 79, 6-(3-chloro-4-fluoro-5-methoxy-phenyl)-2-pyrimidin-2-yl-7,8-dihydro-5H-pyrido[4,3-d]pyrimidine] | 288 nM |
| COc1nc(-c2ccccn2)nc2c1CN(c1ccc(S(C)(=O)=O)cc1)CC2 [Example 81] | 11300 nM |
| CCOc1nc(-c2ccccn2)nc2c1CN(c1ccc(S(C)(=O)=O)cc1)CC2 [Example 82] | 3350 nM |
| CS(=O)(=O)c1ccc(N2CCc3nc(-c4ccccn4)nc(OCc4ccccc4)c3C2)cc1 [Example 83] | 20000 nM |
| C/C=C/c1nc(-c2ccccn2)nc2c1CN(c1ccc(S(C)(=O)=O)cc1)CC2 [Example 84] | 8560 nM |
| CCCc1nc(-c2ccccn2)nc2c1CN(c1ccc(S(C)(=O)=O)cc1)CC2 [Example 85] | 8290 nM |
| CCc1nc(-c2ccccn2)nc2c1CN(c1ccc(S(C)(=O)=O)cc1)CC2 [Example 86] | 22100 nM |
| Cc1nc(-c2ccccn2)nc2c1CN(c1ccc(S(C)(=O)=O)cc1)CC2 [Example 87] | 10300 nM |
| CNc1nc(-c2ccccn2)nc2c1CN(c1ccc(S(C)(=O)=O)cc1)CC2 [Example 88] | 26400 nM |
| CS(=O)(=O)c1ccc(N2CCc3nc(-c4ccccn4)ccc3C2)cc1 [Example 89, 6-(4-methylsulfonylphenyl)-2-(2-pyridyl)-7,8-dihydro-5H-1,6-naphthyridine] | 6720 nM |
| COc1cc(N2CCc3nc(-c4ccccn4)ncc3C2)ccc1F [Example 90, 6-(4-fluoro-3-methoxy-phenyl)-2-(2-pyridyl)-7,8-dihydro-5H-pyrido[4,3-d]pyrimidine] | 933 nM |
| COc1cc(F)cc(N2CCc3nc(-c4ccccn4)ncc3C2)c1 [Example 91, 6-(3-fluoro-5-methoxy-phenyl)-2-(2-pyridyl)-7,8-dihydro-5H-pyrido[4,3-d]pyrimidine] | 198 nM |
| COc1cccc(N2CCc3nc(-c4ccccn4)ncc3C2)c1 [Example 92, 6-(3-methoxyphenyl)-2-(2-pyridyl)-7,8-dihydro-5H-pyrido[4,3-d]pyrimidine] | 2890 nM |
| OCCCOc1cc(N2CCc3nc(-c4ccccn4)ncc3C2)cc(F)c1F [Example 93, 3-[2,3-difluoro-5-[2-(2-pyridyl)-7,8-dihydro-5H-pyrido[4,3-d]pyrimidin-6-yl]phenoxy]propan-1-ol] | 314 nM |
| OCCOc1cc(N2CCc3nc(-c4ccccn4)ncc3C2)cc(F)c1F [Example 94, 2-[2,3-difluoro-5-[2-(2-pyridyl)-7,8-dihydro-5H-pyrido[4,3-d]pyrimidin-6-yl]phenoxy]ethanol] | 660 nM |

| Structure (SMILES) | IC50 |
| --- | --- |
| COc1cc(N2CCc3cc(-c4ncccn4)ncc3C2)cc(F)c1F [Example 95, 2-(3,4-difluoro-5-methoxy-phenyl)-6-pyrimidin-2-yl-3,4-dihydro-1H-2,7-naphthyridine] | 61 nM |
| COc1cc(N2CCc3cc(-c4ccccn4)ncc3C2)cc(F)c1F [Example 96, 2-(3,4-difluoro-5-methoxy-phenyl)-6-(2-pyridyl)-3,4-dihydro-1H-2,7-naphthyridine] | 162 nM |
| COc1cc(N2CCc3nc(-c4ncccn4)ccc3C2)cc(F)c1F [Example 97, 6-(3,4-difluoro-5-methoxy-phenyl)-2-pyrimidin-2-yl-7,8-dihydro-5H-1,6-naphthyridine] | 16400 nM |
| COc1cc(Cl)cc(N2CCc3nc(-c4ncccn4)ncc3C2)c1 [Example 98, 6-(3-chloro-5-methoxy-phenyl)-2-pyrimidin-2-yl-7,8-dihydro-5H-pyrido[4,3-d]pyrimidine] | 268 nM |
| COc1cc(F)nc(N2CCc3nc(-c4ncccn4)ncc3C2)c1 [Example 99, 6-(6-fluoro-4-methoxy-2-pyridyl)-2-pyrimidin-2-yl-7,8-dihydro-5H-pyrido[4,3-d]pyrimidine] | 100 nM |
| COc1cc(N2CCc3nc(-c4ncccn4)ncc3C2)cc(C(F)(F)F)c1 [Example 100, 6-[3-methoxy-5-(trifluoromethyl)phenyl]-2-pyrimidin-2-yl-7,8-dihydro-5H-pyrido[4,3-d]pyrimidine] | 278 nM |
| N#Cc1cc(F)cc(N2CCc3nc(-c4ncccn4)ncc3C2)c1 [Example 101, 3-fluoro-5-(2-pyrimidin-2-yl-7,8-dihydro-5H-pyrido[4,3-d]pyrimidin-6-yl)benzonitrile] | 674 nM |
| COC(=O)c1cc(F)cc(N2CCc3nc(-c4ncccn4)ncc3C2)c1 [Example 102, methyl 3-fluoro-5-(2-pyrimidin-2-yl-7,8-dihydro-5H-pyrido[4,3-d]pyrimidin-6-yl)benzoate] | 11900 nM |
| CNC(=O)c1cc(F)cc(N2CCc3nc(-c4ncccn4)ncc3C2)c1 [Example 103, 3-fluoro-N-methyl-5-(2-pyrimidin-2-yl-7,8-dihydro-5H-pyrido[4,3-d]pyrimidin-6-yl)benzamide] | 2770 nM |
| O=C(NCC(F)(F)F)c1cc(F)cc(N2CCc3nc(-c4ncccn4)ncc3C2)c1 [Example 104, 3-fluoro-5-(2-pyrimidin-2-yl-7,8-dihydro-5H-pyrido[4,3-d]pyrimidin-6-yl)-N-(2,2,2-trifluoroethyl)benzamide] | 1240 nM |
| NC(=O)c1cc(F)cc(N2CCc3nc(-c4ncccn4)ncc3C2)c1 [Example 105, 3-fluoro-5-(2-pyrimidin-2-yl-7,8-dihydro-5H-pyrido[4,3-d]pyrimidin-6-yl)benzamide] | 18100 nM |
| COCCCNC(=O)c1cc(F)cc(N2CCc3nc(-c4ncccn4)ncc3C2)c1 [Example 106, 3-fluoro-N-(3-methoxypropyl)-5-(2-pyrimidin-2-yl-7,8-dihydro-5H-pyrido[4,3-d]pyrimidin-6-yl)benzamide] | 1340 nM |
| O=C(NCCCCCO)c1cc(F)cc(N2CCc3nc(-c4ncccn4)ncc3C2)c1 [Example 107, 3-fluoro-N-(5-hydroxypentyl)-5-(2-pyrimidin-2-yl-7,8-dihydro-5H-pyrido[4,3-d]pyrimidin-6-yl)benzamide] | 7120 nM |
| COc1cc(Cl)nc(N2CCc3nc(-c4ncccn4)ncc3C2)c1 [Example 108, 6-(6-chloro-4-methoxy-2-pyridyl)-2-pyrimidin-2-yl-7,8-dihydro-5H-pyrido[4,3-d]pyrimidine] | 263 nM |
| Fc1cc(N2CCc3nc(-c4ncccn4)ncc3C2)cc(F)n1 [Example 109, 6-(2,6-difluoro-4-pyridyl)-2-pyrimidin-2-yl-7,8-dihydro-5H-pyrido[4,3-d]pyrimidine] | 4090 nM |
| Fc1cc(F)nc(N2CCc3nc(-c4ncccn4)ncc3C2)c1 [Example 110, 6-(4,6-difluoro-2-pyridyl)-2-pyrimidin-2-yl-7,8-dihydro-5H-pyrido[4,3-d]pyrimidine] | 1440 nM |
| COc1cc(F)cc(N2CCc3nc(-c4ncccn4)ncc3C2)n1 [Example 111, 6-(4-fluoro-6-methoxy-2-pyridyl)-2-pyrimidin-2-yl-7,8-dihydro-5H-pyrido[4,3-d]pyrimidine] | 362 nM |
